Laboratory results taken from US20220251640A1, “METHODS OF DETERMINATION OF GENOME ARCHITECTURE AND EPIGENETIC PROFILE” (THE BROAD INSTITUTE, INC., priority 2019, published 2022).
Entries after “also recorded” stand apart in the source; their conditions may differ.

How the values were obtained:
Hap1 cells = assay: Hi-Culfite on Hap1 cells treated with 5-azacytidine (methylation inhibition experiment); format: cell-based; conditions: for CpG C->T conversion: DMSO control 37.66%
Source text: (§1) Hi-Culfite library construction (FIG. 1A) followed the initial steps of an in situ Hi-C protocol (8). One million cells were crosslinked with formaldehyde; chromatin was digested with a restriction enzyme; and the overhangs were filled in, incorporating a biotinylated nucleotide to mark the fragment ends after ligation. The DNA was then purified and sheared. Next, Applicants performed bisulfite conversion, which converted unmethylated cytosine residues into uracil but left methylated cytosine residues intact. Applicants captured the resulting single-stranded, biotin-marked ligation products on streptavidin beads. Finally, Applicants added adapters to the 3′ end, synthesized the second strand by primer extension, ligated adapters to the 3′ end of the 2nd strand, and PCR amplified with indexed primers.
(§2) Cell Culture: All commercial cell lines were cultured following vendors' recommendations to about 80% confluency before they were harvested and cross-linked in fresh complete medium. For methylation inhibition experiments, cultures of GM12878 (Coriell Institute) and Hap1 (Horizon) were grown for 8 days in medium supplemented with DMSO without drug or with 1 μM or 5 μM 5-azacytidine (Sigma Aldrich) solubilized in DMSO, refreshing the medium/drug every two days.
(§3) Library Construction: Hi-C libraries were prepared using the protocol described (8) Briefly, one million cells were crosslinked with 1% formaldehyde for 10 minutes at room temperature and then quenched with 0.2 M glycine solution. Cells were lysed and nuclei permeabilized with 0.5% SDS for 10 minutes at 62° C. Chromatin was digested with 100 U of MboI restriction enzyme (NEB). Ends of the restriction fragments were filled-in and labeled with a biotinylated nucleotide and then ligated. Nuclei were pelleted, proteins were digested with proteinase K, and crosslinks were reversed by heating at 68° C. overnight. DNA was sheared in a Covaris focused ultrasonicator to a length of 300-500 bp. Size-selected DNA was split for processing with two workflows—10% of the material was used for preparation of a regular Hi-C library (unconverted control) and 90% of the DNA was used for Hi-Culfite library construction. Hi-C libraries were finished by enriching for biotinylated ligation junctions through binding to T1 streptavidin beads (Thermo Fisher) and preparing the library for Illumina sequencing performing the end-repair, A-tailing and adapter ligation steps with DNA attached to the beads. Libraries were amplified directly off the beads and purified for subsequent Illumina sequencing.
DNA for Hi-Culfite was first treated with sodium bisulfite using EpiTect Fast bisulfite conversion kit (Qiagen) following the kit's instructions and extending each of the two 60° C. conversion incubations to 20 minutes. Converted DNA was purified without addition of an RNA carrier to the binding buffer. Biotinylated ligation junctions in purified bisulfite-converted DNA were captured on 15 μl C1 streptavidin beads (Thermo Fisher) in denaturing binding buffer (10 mM Tris pH 7.5; 5 mM EDTA; 500 mM LiCl; 0.5% Igepal CA630; 0.2% SDS; 4 M Urea) for 10 minutes at 55° C. DNA was washed twice with binding buffer at 55° C. and once with 10 mM Tris. […]
Methylation Track Generation with MethylDackel: Duplicate Hi-C contacts were marked as duplicates in the methylation BAM. Applicants then called the program Methyl Dackel extract with the flag “-F 1024”; this ignored duplicates reads but kept all other mapped reads with MAPQ ≥10. […]

GM12878 cells = assay: Hi-Culfite on GM12878 cells treated with 5-azacytidine (methylation inhibition experiment); format: cell-based, human; conditions: for CpG C->T conversion: DMSO control 45.37%
Source text: as §1, §2, §3
DNA for Hi-Culfite was first treated with sodium bisulfite using EpiTect Fast bisulfite conversion kit (Qiagen) following the kit's instructions and extending each of the two 60° C. conversion incubations to 20 minutes. Converted DNA was purified without addition of an RNA carrier to the binding buffer. Biotinylated ligation junctions in purified bisulfite-converted DNA were captured on 15 μl C1 streptavidin beads (Thermo Fisher) in denaturing binding buffer (10 mM Tris pH 7.5; 5 mM EDTA; 500 mM LiCl; 0.5% Igepal CA630; 0.2% SDS; 4 M Urea) for 10 minutes at 55° C. DNA was washed twice with binding buffer at 55° C. and once with 10 mM Tris. Beads were resuspended in 15 μl of 10 mM Tris, and libraries were detached from the beads by heating for 5 minutes at 95° C. After separating on a magnet, library construction for Illumina sequencing was performed on the supernatant containing ssDNA library using Accel-NGS Methyl-Seq kit (Swift Biosciences) following the kit's manual.
Methylation Track Generation with MethylDackel: Duplicate Hi-C contacts were marked as duplicates in the methylation BAM. Applicants then called the program Methyl Dackel extract with the flag “-F 1024”; this ignored duplicates reads but kept all other mapped reads with MAPQ ≥10. MethylDackel generated CpG methylation tracks, a cytosine coverage report, and an input file for the analysis program MethylKit26. […]

Nc1ncn([C@@H]2O[C@H](CO)[C@@H](O)[C@H]2O)c(=O)n1 [5-azacytidine]
impact on nuclear architecture / chromosome-level nuclear organization (contact maps, eigenvectors) (Hap1 cells; Hap1, 1 uM and 5 uM, 8 days, vs DMSO): did not discern an impact on nuclear architecture; also recorded: no effect on chromosome-level nuclear organization | CpG C->T conversion (Hap1 cells; Hap-1, 1 μM 5-azacytidine in DMSO, 8 days): 86.16% | CpG C->T conversion (Hap1 cells; Hap-1, 5 μM 5-azacytidine in DMSO, 8 days): 85.79% | genome-wide decline of methylation (on average) (Hap1 cells; HapI treated with 5-azacytidine, average stated jointly for GM12878 and HapI): 2 fold | looping signal by Aggregate Peak Analysis (Hap1 cells; HapI, increasing 5-azacytidine concentration): no significant changes in looping signal | CpG C->T conversion (GM12878 cells; GM12878, 1 μM 5-azacytidine in DMSO, 8 days): 69.46% | impact on nuclear architecture / chromosome-level nuclear organization (contact maps, eigenvectors) (GM12878 cells; GM12878, 1 uM and 5 uM, 8 days, vs DMSO): did not discern an impact on nuclear architecture; also recorded: no effect on chromosome-level nuclear organization | CpG C->T conversion (GM12878 cells; GM12878, 5 μM 5-azacytidine in DMSO, 8 days): 75.08% | looping signal by Aggregate Peak Analysis (GM12878 cells; GM12878, increasing 5-azacytidine concentration): no significant changes in looping signal | genome-wide decline of methylation (on average) (GM12878 cells; GM12878 treated with 5-azacytidine, average stated jointly for GM12878 and HapI): 2 fold | nucleosome occupancy and directional methylation asymmetry at CTCF motifs (aggregate methylation analysis) (GM12878 cells; increasing concentration of 5-azacytidine, GM12878 CTCF motifs): no changes to nucleosome occupancy and directional methylation asymmetry
